Assay results: patent publication US5525625A (priority 1995, dated 1996)

How the values were obtained:
[1] = test system: MAP kinase; assay: Whole cell MAP kinase assay, PC-12 cells stimulated with NGF; assay type: cell-based; conditions: Rattus norvegicus, read-out: IC50, activation of MAP kinase in whole cells
Protocol: (§1) To determine if compounds were able to block activation of MAP kinase in whole cells, the following protocol was used: Cells were plated in multi-well plates and grown to confluence. Cells were then serum-deprived overnight. Cells were exposed to the desired concentrations of compound or vehicle (DMSO) for 30 minutes, followed by addition of a growth factor, e.g., PDGF (100 ng/mL). After a 5-minute treatment with the growth factor, cells were washed with PBS, then lysed in a buffer consisting of 70 mM NaCl, 10 mM HEPES (pH 7.4), 50 mM glycerol phosphate, and 1% Triton X-100. Lysates were clarified by centrifugation at 13,000×g for 10 minutes. Five micrograms of the resulting supernatants were incubated with 10 μg microtubule associated protein-2 (Map2) for 15 minutes at 30° C. in a final volume of 25 μL containing 50 mM Tris (pH 7.4), 10 mM MgCl2, 2 mM EGTA and 30 μM [γ-^32 P]ATP. Reactions were terminated by addition of Laemmli sample buffer. Phosphorylated Map2 was resolved on 7.5% acrylamide gels and incorporated radioactivity determined by autoradiography and subsequent excision of the bands followed by scintillation counting.

[2] = test system: MAP kinase; assay: Whole cell MAP kinase assay, 3T3-L1 cells stimulated with insulin; assay type: cell-based, murine
Protocol: as §1, with “Cells” for “To determine if compounds were able to block activation of MAP kinase in whole cells, the following protocol was used: Cells were plated in multi-well plates and grown to confluence. Cells”, “buffer.” for “buffer. Phosphorylated Map2 was resolved on 7.5% acrylamide gels and incorporated radioactivity determined by autoradiography and subsequent excision of the bands followed by scintillation counting.”

[3] = test system: Balb 3T3; assay: 3H-Thymidine incorporation, PDGF-stimulated, Balb 3T3; assay type: cell-based; conditions: Mus musculus; Balb 3T3, PDGF-stimulated
Protocol: (§2) Cells were plated in multi-well plates and grown to near confluence. The media was then removed and replaced with growth media containing 1% bovine serum albumin. After 24-hour serum starvation, compounds and specific growth factors were added and incubations continued for an additional 24 hours. During the final 2 hours, 3H-thymidine was added to the medium. To terminate the incubations, the medium was removed and cell layers washed twice with ice-cold phosphate-buffered saline. After the final wash, ice-cold 5% trichloroacetic acid was added and the cells incubated for 15 minutes at room temperature. The trichloro-acetic acid solution was then removed and the cell layer washed three times with distilled water. After the final wash, the cell layer was solubilized by addition of 2% sodium dodecylsulfate. Radioactivity in this solution was determined by scintillation counting.

[4] = test system: K-Balb 3T3; assay: 3H-Thymidine incorporation, PDGF-stimulated, K-Balb 3T3; assay type: cell-based; conditions: K-Balb 3T3, PDGF-stimulated
Protocol: as §2

[5] = test system: 3T3-L1 adipocyte cells; assay: Insulin stimulated uptake of radiolabeled 2-deoxyglucose; assay type: cell-based, murine; conditions: 10 μM concentration
[6] = test system: 3T3-L1 adipocyte cells; assay: Insulin-stimulated synthesis of lipid; assay type: cell-based, murine; conditions: 10 μM concentration
[7] = test system: 3T3-L1 adipocyte cells; assay: Insulin-stimulated synthesis of glycogen; assay type: cell-based, murine; conditions: 10 μM concentration
[8] = test system: K-Ras/Balb; assay: Growth in soft-agar, K-Ras/Balb; assay type: cell-based; conditions: Mus musculus, anchorage independent (soft agar clonogenicity)
Protocol: (§3) Cells were seeded into 35-mm dishes at 5 to 10,000 cells/dish using growth medium containing 0.3% agar. After chilling to solidify the agar, cells were transfered to a 37° C. incubator. After 7 to 10 days growth, visible colonies were manually enumerated with the aid of a dissecting microscope.

[9] = test system: K-Ras/NRK; assay: Growth in soft-agar, K-Ras/NRK; assay type: cell-based; conditions: anchorage independent (soft agar clonogenicity)
Protocol: as §3

[10] = test system: RSV/RAT-1; assay: Growth in soft-agar, RSV/RAT-1; assay type: cell-based; conditions: read-out: Agar Growth IC50
Protocol: as §3

[11] = test system: EGFR/Swiss 3T3; assay: Growth in soft-agar, EGFR/Swiss 3T3; assay type: cell-based; conditions: EGFR/Swiss 3T3, anchorage independent (soft agar clonogenicity)
Protocol: as §3

[12] = test system: K562; assay: Growth in soft-agar, K562; assay type: cell-based; conditions: Homo sapiens; K562, anchorage independent (soft agar clonogenicity)
Protocol: as §3

[13] = test system: v-Raf/3Y1; assay: Growth in soft-agar, v-Raf/3Y1; assay type: cell-based; conditions: v-Raf/3Y1, anchorage independent (soft agar clonogenicity)
Protocol: as §3

[14] = test system: K-Ras/Balb; assay: Monolayer growth, K-Ras/Balb; assay type: cell-based; conditions: Mus musculus, anchorage dependent
Protocol: (§4) Cells were plated into multi-well plates at 10 to 20,000 cells/mL. Forty-eight hours after seeding, compounds were added to the cell growth medium and incubation was continued for 2 additional days. Cells were then removed from the wells by incubation with trypsin and enumerated with a Coulter counter. Growth in soft-agar.

[15] = test system: K-Ras/NRK; assay: Monolayer growth, K-Ras/NRK; assay type: cell-based; conditions: anchorage dependent
Protocol: as §4

[16] = test system: RSV/RAT-1; assay: Monolayer growth, RSV/RAT-1; assay type: cell-based; conditions: read-out: Monolayer Growth IC50
Protocol: as §4

[17] = test system: EGFR/Swiss 3T3; assay: Monolayer growth, EGFR/Swiss 3T3; assay type: cell-based; conditions: EGFR/Swiss 3T3, anchorage dependent
Protocol: as §4

[18] = test system: K562; assay: Monolayer growth, K562; assay type: cell-based; conditions: Homo sapiens; K562, anchorage dependent
Protocol: as §4

[19] = test system: v-Raf/3Y1; assay: Monolayer growth, v-Raf/3Y1; assay type: cell-based; conditions: v-Raf/3Y1, anchorage dependent
Protocol: as §4

[20] = target: T1, MEK (Homo sapiens, UniProt Q02750); assay type: biochemical; conditions: order of addition experiments
Protocol: Incorporation of ^32 P into myelin basic protein (MBP) was assayed in the presence of a glutathione S-transferase fusion protein containing p44MAP kinase (GST-MAPK) and a glutathione S-transferase fusion protein containing p45MEK (GST-MEK). […] Compounds were assessed at 10 μM for ability to inhibit incorporation of ^32 P.
To ascertain whether compounds were inhibiting GST-MEK or GST MAPK, two additional protocols were employed. In the first protocol, compounds were added to tubes containing GST-MEK, followed by addition of GST-MAPK, MBP and [γ-^32 P]ATP. In the second protocol, compounds were added to tubes containing both GST-MEK and GST-MAPK, followed by MBP and [γ-^32 P]ATP.

[21] = test system: MAP kinase; assay: In vitro MAP kinase assay; assay type: biochemical; conditions: 50 μM concentration
Protocol: Inhibitory activity was also confirmed in direct assays. For MAP kinase, 1 μg GST-MAPK was incubated with 40 μg MBP for 15 minutes at 30° C. in a final volume of 50 μL containing 50 mM Tris (pH 7.5), 10 μM MgCl2, 2 μM EGTA, and 10 μM [γ-^32 P]ATP. The reaction was stopped by addition of Laemmli SDS sample buffer and phosphorylated MBP resolved by electrophoresis on a 10% polyacrylamide gel. Radioactivity incorporated into MBP was determined by autoradiography, and subsequently by excision of the bands followed by scintillation counting.

[22] = test system: Protein kinase C (rat brain homogenate c-PKC mixture); assay: Kinase selectivity: Protein kinase C; assay type: biochemical; conditions: 50 μM concentration
[23] = target: v-Src (Rous sarcoma virus (strain Schmidt-Ruppin A), UniProt P00524); assay: Kinase selectivity: v-Src; assay type: biochemical; conditions: 50 μM concentration
[24] = target: EGFR Tyrosine kinase (Homo sapiens, UniProt P00533); assay: Kinase selectivity: EGFR Tyrosine kinase; assay type: biochemical; conditions: 50 μM concentration
[25] = target: NGFR (trk-A) Tyrosine kinase (Homo sapiens, UniProt P04629); assay: Kinase selectivity: NGFR (trk-A) Tyrosine kinase; assay type: biochemical; conditions: 50 μM concentration
[26] = target: PDGFRβ Tyrosine kinase (Homo sapiens, UniProt P09619); assay: Kinase selectivity: PDGFRβ Tyrosine kinase; assay type: biochemical; conditions: 50 μM concentration
[27] = test system: PI-3 kinase; assay: Kinase selectivity: PI-3 kinase; assay type: biochemical; conditions: 50 μM concentration
[28] = target: E. coli histidine kinase NRII (Escherichia coli, UniProt P0AFB5); assay: Kinase selectivity: E. coli histidine kinase NRII; assay type: biochemical; conditions: 50 μM concentration
[29] = target: RAF (Homo sapiens, UniProt P04049); assay: Kinase selectivity: RAF; assay type: biochemical; conditions: 50 μM concentration
[30] = target: T1, MEK; assay type: biochemical

T1 sequence (Q02750 whole entry, the tested form may be a part): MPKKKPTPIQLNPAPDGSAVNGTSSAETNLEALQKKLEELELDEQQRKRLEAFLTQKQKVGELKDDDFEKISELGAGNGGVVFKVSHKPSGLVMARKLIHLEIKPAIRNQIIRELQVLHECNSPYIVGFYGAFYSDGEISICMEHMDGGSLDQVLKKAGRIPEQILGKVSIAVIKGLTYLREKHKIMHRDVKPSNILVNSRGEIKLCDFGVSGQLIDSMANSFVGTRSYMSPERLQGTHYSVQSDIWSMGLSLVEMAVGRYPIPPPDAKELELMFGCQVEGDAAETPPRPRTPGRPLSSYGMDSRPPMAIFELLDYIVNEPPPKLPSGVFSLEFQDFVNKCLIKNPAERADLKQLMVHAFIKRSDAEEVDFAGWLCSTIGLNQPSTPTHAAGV
RAF, sequence (P04049 whole entry): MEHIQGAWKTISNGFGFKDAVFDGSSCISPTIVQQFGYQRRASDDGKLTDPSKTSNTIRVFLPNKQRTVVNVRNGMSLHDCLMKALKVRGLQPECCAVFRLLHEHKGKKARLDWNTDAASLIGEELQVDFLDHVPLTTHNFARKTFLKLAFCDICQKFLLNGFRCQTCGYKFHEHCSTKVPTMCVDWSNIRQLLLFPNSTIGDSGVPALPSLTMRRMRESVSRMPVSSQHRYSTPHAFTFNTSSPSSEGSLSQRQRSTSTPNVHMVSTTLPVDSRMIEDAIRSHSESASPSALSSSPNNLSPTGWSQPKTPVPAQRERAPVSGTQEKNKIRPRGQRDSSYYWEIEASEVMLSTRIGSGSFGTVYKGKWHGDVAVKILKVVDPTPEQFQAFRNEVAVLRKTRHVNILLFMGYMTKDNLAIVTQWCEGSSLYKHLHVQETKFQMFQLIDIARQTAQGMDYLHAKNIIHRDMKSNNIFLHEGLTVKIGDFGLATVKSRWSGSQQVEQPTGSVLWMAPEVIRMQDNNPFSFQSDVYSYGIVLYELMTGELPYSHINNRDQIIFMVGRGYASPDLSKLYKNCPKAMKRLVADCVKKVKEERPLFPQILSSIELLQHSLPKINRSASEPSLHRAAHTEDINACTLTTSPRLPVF
NGFR (trk-A) Tyrosine kinase, sequence (P04629 33-796, species assumed): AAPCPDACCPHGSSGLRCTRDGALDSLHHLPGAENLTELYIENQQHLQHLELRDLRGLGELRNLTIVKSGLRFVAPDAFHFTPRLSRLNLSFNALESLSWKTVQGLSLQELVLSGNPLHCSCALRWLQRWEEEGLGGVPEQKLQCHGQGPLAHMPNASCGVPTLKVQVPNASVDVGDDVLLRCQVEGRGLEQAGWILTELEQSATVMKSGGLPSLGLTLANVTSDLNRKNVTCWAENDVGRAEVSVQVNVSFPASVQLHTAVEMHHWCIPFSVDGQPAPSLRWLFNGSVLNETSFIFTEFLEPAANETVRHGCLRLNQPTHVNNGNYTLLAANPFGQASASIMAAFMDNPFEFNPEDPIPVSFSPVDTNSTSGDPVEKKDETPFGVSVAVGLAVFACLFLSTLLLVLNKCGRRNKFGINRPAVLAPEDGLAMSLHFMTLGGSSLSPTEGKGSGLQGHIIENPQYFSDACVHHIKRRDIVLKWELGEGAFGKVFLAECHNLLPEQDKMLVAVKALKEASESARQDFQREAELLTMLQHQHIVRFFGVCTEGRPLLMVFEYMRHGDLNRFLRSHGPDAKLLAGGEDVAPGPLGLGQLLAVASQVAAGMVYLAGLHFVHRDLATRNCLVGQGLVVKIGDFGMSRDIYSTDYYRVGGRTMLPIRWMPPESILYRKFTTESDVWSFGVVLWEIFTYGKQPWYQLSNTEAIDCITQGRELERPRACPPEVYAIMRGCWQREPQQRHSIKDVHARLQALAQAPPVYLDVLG
EGFR Tyrosine kinase, sequence (P00533 25-1210): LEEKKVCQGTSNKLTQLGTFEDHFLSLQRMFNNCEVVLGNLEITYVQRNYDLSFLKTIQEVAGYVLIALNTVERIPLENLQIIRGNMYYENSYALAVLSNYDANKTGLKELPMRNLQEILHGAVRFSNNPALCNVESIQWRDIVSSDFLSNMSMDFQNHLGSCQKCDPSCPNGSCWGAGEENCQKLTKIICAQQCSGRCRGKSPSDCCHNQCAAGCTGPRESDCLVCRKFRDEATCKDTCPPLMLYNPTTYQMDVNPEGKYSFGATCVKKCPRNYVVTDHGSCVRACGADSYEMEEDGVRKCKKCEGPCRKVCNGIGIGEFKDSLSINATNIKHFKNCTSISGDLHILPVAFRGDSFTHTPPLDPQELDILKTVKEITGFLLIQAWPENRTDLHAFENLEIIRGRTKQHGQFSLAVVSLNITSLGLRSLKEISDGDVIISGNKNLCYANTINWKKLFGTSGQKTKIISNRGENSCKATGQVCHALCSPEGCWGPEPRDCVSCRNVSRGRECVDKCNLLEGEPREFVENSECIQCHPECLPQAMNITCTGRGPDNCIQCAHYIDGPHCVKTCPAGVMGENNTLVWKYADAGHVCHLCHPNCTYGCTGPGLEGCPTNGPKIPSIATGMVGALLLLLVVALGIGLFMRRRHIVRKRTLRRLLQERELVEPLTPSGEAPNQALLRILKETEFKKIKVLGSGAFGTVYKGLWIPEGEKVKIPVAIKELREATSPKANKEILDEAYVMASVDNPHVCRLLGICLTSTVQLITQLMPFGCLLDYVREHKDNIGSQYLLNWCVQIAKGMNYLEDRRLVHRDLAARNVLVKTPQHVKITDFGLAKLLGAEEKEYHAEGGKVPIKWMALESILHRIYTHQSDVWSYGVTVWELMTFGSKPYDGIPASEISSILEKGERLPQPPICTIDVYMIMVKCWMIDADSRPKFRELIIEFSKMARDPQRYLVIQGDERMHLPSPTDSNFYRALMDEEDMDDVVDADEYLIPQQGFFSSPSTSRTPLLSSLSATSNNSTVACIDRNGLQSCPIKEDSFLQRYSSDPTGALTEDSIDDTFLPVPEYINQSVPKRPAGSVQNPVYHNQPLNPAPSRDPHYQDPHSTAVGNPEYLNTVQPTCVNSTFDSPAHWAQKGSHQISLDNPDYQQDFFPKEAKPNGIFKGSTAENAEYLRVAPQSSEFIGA
E. coli histidine kinase NRII, sequence (P0AFB5 whole entry): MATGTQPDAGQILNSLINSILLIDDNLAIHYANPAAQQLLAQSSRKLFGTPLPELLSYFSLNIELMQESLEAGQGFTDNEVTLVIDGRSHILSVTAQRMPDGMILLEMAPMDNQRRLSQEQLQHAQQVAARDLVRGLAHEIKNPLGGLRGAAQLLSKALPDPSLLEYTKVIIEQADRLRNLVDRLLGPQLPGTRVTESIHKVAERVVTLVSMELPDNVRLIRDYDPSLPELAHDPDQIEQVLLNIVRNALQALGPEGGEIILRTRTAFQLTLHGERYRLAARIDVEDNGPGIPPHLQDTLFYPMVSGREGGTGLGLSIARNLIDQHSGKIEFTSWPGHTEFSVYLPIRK
v-Src, sequence (P00524 2-526): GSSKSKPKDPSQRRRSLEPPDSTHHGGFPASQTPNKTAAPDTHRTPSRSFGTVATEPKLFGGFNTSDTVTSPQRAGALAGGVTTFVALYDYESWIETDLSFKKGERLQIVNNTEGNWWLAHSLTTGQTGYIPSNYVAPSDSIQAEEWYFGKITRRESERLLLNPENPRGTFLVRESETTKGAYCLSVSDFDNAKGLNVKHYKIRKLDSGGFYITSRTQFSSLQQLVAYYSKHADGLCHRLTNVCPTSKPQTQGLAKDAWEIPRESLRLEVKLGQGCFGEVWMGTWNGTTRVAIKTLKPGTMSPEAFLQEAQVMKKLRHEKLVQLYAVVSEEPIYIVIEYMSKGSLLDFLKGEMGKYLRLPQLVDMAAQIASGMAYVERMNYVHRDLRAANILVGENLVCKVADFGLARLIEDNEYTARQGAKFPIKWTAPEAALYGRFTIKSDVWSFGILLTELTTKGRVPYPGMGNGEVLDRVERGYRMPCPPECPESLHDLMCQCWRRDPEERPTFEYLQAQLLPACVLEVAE
PDGFRβ Tyrosine kinase, sequence (P09619 33-1106): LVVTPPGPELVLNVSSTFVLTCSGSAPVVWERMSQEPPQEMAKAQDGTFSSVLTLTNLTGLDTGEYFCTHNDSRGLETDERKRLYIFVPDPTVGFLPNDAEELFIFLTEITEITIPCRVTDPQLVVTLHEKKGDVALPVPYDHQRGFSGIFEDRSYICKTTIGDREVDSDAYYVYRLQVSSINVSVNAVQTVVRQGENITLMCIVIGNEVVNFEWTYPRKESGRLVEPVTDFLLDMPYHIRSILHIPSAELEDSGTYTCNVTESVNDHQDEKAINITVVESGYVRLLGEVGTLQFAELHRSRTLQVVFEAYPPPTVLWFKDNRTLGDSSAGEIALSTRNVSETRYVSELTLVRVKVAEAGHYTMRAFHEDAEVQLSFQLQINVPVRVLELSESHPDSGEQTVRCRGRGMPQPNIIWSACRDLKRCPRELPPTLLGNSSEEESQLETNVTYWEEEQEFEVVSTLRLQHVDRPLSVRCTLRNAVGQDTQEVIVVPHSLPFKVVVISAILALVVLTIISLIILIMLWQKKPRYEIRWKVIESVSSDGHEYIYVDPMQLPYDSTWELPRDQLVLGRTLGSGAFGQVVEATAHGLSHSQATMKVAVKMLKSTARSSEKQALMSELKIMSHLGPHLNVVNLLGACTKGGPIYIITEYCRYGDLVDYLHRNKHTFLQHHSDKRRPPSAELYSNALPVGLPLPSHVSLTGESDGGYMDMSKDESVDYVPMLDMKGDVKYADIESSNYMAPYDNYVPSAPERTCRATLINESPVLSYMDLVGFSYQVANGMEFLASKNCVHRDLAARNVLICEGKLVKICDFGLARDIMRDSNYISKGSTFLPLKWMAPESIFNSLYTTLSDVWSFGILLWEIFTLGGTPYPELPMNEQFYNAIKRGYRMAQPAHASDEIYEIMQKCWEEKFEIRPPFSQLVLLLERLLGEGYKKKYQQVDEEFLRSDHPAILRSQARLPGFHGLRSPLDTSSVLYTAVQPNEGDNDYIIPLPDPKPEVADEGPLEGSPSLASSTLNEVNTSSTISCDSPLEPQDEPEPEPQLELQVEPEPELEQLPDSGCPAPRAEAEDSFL

## COc1cccc(-c2cc(=O)c3ccccc3o2)c1N [invention compound, 2-(2-amino-3-methoxyphenyl)-4-oxo-4H-[1]benzopyran]
[1]
  IC50: 7 µM
[2]; Mus musculus, 3T3-L1 cells stimulated with insulin, read-out: IC50, activation of MAP kinase in whole cells
  IC50: 3 µM
[2]; murine 3T3-L1 adipocytes, insulin
  activation of insulin stimulated MAP kinase: does inhibit
[3]
  IC50: 8 µM
[4]
  IC50: 10 µM
[5]
  effect on insulin stimulated uptake of radiolabeled 2-deoxyglucose: does not affect
[5]; listed as compound
  effect on insulin stimulated uptake of radiolabeled 2-deoxyglucose: no effect
[6]
  effect on insulin-stimulated synthesis of lipid: does not affect
[6]; listed as compound
  effect on insulin-stimulated synthesis of lipid: no effect
[7]
  effect on insulin-stimulated synthesis of glycogen: does not affect
[7]; listed as compound
  effect on insulin-stimulated synthesis of glycogen: no effect
[8]
  IC50: 1.5 µM
[9]
  IC50: 2 µM
[10]
  IC50: 60 µM
[11]
  IC50: > 100 µM
[12]
  IC50: 60 µM
[13]
  IC50: 4.5 µM
[14]
  IC50: 25 µM
[15]
  IC50: 40 µM
[16]
  IC50: > 100 µM
[17]
  IC50: > 100 µM
[18]
  IC50: > 100 µM
[19]
  IC50: 50 µM
[20]
  enzyme inhibited in the cascade (MEK or MAP kinase): inhibiting MEK and not MAP kinase
[21]
  inhibition of MAP kinase: does not appreciably inhibit
[22]
  inhibition of Protein kinase C: does not appreciably inhibit
[23]
  inhibition of v-Src: does not appreciably inhibit
[24]
  inhibition of EGFR Tyrosine kinase: does not appreciably inhibit
[25]
  inhibition of NGFR (trk-A) Tyrosine kinase: does not appreciably inhibit
[26]
  inhibition of PDGFRβ Tyrosine kinase: does not appreciably inhibit
[27]
  inhibition of PI-3 kinase: does not appreciably inhibit
[28]
  inhibition of E. coli histidine kinase NRII: does not appreciably inhibit
[29]
  inhibition of RAF: does not appreciably inhibit
[30]
  competition with ATP (kinetic analysis): not competitive with ATP
